Test results reported in PMC6367500, “18β-glycyrrhetyl-3-O-sulfate would be a causative agent of licorice-induced pseudoaldosteronism” (Scientific Reports, 2019).

Legend:
OAT1 [1] = molecular target: T1, OAT1 (Homo sapiens, UniProt Q4U2R8); conditions: cited from earlier work
T1 construct: expressed in transfected cells; host or cells: MDCK II cells
T1 sequence (Q4U2R8 1-563): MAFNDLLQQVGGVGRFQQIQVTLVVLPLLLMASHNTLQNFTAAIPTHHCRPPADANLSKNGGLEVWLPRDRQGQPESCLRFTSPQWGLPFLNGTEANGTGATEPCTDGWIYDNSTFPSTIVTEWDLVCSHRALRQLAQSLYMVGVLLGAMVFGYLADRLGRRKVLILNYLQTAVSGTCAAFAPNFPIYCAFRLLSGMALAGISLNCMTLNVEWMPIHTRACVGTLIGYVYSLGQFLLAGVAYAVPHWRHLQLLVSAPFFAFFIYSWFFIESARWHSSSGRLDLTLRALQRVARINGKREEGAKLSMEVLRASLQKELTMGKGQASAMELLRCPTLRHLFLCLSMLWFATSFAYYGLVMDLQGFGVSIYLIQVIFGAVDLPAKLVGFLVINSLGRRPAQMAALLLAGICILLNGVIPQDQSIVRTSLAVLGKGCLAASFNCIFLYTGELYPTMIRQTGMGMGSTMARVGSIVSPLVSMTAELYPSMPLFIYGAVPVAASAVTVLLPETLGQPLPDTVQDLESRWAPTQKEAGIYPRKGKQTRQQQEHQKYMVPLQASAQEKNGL

anti-3MGA-mAb = experiment: Dot-blot analysis using anti-3MGA-mAb; assay type: binding; conditions: 1 µg spotted on PES membrane, imaging analysis
Description: We confirmed the cross-reactivity of anti-3MGA-mAb against these GL metabolites. GL, GA, 3MGA, and compounds 1, 2, and 3 (1 µg each) were spotted on a polyethersulfone (PES) membrane, fixed onto the membrane, and colored using an anti-3MGA-mAb (Fig. 5A). […] Thus, the anti-3MGA-mAb cross-reacted to some extent with other metabolites of GL.
Figure 5 Dot-blot analysis and ELISA detection range of GL metabolites using anti-3MGA-monoclonal antibody (mAb). GL metabolites (1 µg each) were spotted on a PES membrane, and colored using an anti-3MGA-mAb (A). Competitive ELISA using anti-3MGA-mAb for GL metabolites was performed. Data are represented from a single analysis (n = 1) (B). […] Data are represented as mean ± S.D. (n = 3). Two-way ANOVA indicated a significant difference between GA and 3 (F1,36 = 4441, P < 0.001), concentrations (F8,36 = 315, P < 0.001), and their interactions (F8,36 = 281, P < 0.001). The calibrated line for the absorbance-concentration profile of 3 was calculated by the linear least-squares method, and the regression formula is shown in graph (C).
Anti-3MGA-mAb and 3MGA-human serum albumin (HSA)-conjugate were developed by the same protocols established in our previous studies[22],[23]. GL, GA, 3MGA, 1, 2, and 3 (1 µg each) were spotted on a Mustang^TM E positively charged PES membrane (Pall Co., East Hills, NY, USA). The membrane was then immersed into 0.1 M MES buffer (pH 4.7) containing 2% EDC and 1% NHS, and kept at room temperature for 1 h to activate the carboxyl group. After washing with distilled water, PBS containing 1% bovine serum albumin (BSA) was added to the membrane, which was shaken at room temperature for 2 h for fixation. Next, the membrane was blocked with PBS containing 5% skim milk (Morinaga-milk, Tokyo, Japan) and 0.1% Tween 20 at 4 °C overnight to reduce nonspecific adsorption. After washing twice with PBS containing 0.1% Tween 20 (T-PBS) for 5 min, the membrane was incubated with anti-3MGA-mAb and kept at room temperature for 3 h with constant agitation. The membrane was then washed twice with T-PBS for 5 min and treated with 1:500 diluted horseradish peroxidase (HRP)-labeled goat anti-mouse IgG (whole molecule; Sigma, St. Louis, MO, USA) antibody in T-PBS for 1 h with gentle shaking. Finally, the membrane was washed twice with T-PBS and once with PBS, and exposed to 1 mg/ml of freshly prepared 4-chloro-1-naphthol-0.03% H2O2 in PBS for 15 min at room temperature. The reaction was stopped by washing with distilled water, and the immunostained PES membrane was allowed to dry and then photographed. The positively stained areas were measured using Image J 1.46r (http://imageJ.nih.gov/ij).

OAT3 = molecular target: T2, OAT3 (Homo sapiens, UniProt Q8TCC7); conditions: cited from earlier work
T2 construct: expressed in transfected cells; host or cells: MDCK II cells
T2 sequence (Q8TCC7 1-542): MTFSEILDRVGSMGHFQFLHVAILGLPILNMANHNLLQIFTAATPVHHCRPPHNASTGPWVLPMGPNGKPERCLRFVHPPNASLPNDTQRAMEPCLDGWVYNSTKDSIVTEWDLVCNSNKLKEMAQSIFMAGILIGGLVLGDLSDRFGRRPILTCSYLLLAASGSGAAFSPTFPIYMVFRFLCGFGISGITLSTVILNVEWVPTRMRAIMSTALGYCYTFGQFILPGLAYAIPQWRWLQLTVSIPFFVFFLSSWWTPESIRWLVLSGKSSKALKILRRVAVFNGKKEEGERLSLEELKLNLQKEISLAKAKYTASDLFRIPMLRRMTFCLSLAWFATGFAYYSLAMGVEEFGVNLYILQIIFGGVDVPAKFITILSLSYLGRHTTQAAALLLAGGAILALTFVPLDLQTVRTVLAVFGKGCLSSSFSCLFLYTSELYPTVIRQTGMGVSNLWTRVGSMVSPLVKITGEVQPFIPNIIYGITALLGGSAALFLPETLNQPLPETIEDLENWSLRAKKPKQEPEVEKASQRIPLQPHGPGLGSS

OAT1 [2] = molecular target: T1, OAT1; experiment: Uptake into MDCK II cells stably expressing OAT1; assay type: cell-based; conditions: pooled EHBR plasma, pH 5.5, 37 °C, 15 min
Description: Kidneys were collected from normal SD rats, and the kidney slices were incubated with the plasma samples of EHBRs at 37 °C or 4 °C for 2 h (A–C). MDCK II cells stably expressing OAT1 or OAT3 were incubated with the plasma samples of EHBRs at 37 °C for 15 min (D–F). […] Data are expressed as mean ± S.E. (n = 3 for (C, D), and (E); n = 6 for (A, B), and F). *P < 0.05 and **P < 0.01 vs 4 °C group by Student’s t-test for (A–C), and vs mock cells by Dunnett’s multiple t-test for (D–F).
Uptake studies using rat kidney slices and cells stably expressing OAT1 and OAT3 were conducted with the same protocol as in our previous study.

CC1(C)[C@@H](O[C@@H]2O[C@H](C(=O)O)[C@@H](O)[C@H](O)[C@H]2O)CC[C@]2(C)[C@H]3C(=O)C=C4[C@@H]5C[C@@](C)(C(=O)O)CC[C@]5(C)CC[C@@]4(C)[C@]3(C)CC[C@@H]12 [3MGA, 3-monoglucuronyl glycyrrhetinic acid, reference compound]
substrate of OAT1 (OAT1 [1]): substrate
area of positive staining in dot-blot (anti-3MGA-mAb): 3395 pixels
substrate of OAT3 (OAT3): substrate

CC1(C)[C@@H](O)CC[C@]2(C)[C@H]3C(=O)C=C4[C@@H]5C[C@@](C)(C(=O)O)CC[C@]5(C)CC[C@@]4(C)[C@]3(C)CC[C@@H]12 [GA, glycyrrhetinic acid, reference compound]
area of positive staining in dot-blot (anti-3MGA-mAb): 97 pixels

CC1(C)[C@@H](OS(=O)(=O)O)CC[C@]2(C)[C@H]3C(=O)C=C4[C@@H]5C[C@@](C)(C(=O)O[C@@H]6O[C@H](C(=O)O)[C@@H](O)[C@H](O)[C@H]6O)C[C@H](O)[C@]5(C)CC[C@@]4(C)[C@]3(C)CC[C@@H]12 [compound 1, 22α-hydroxy-18β-glycyrrhetyl-3-O-sulfate-30-glucuronide]
substrate of OAT1 (OAT1 [1]): substrate
area of positive staining in dot-blot (anti-3MGA-mAb): 606 pixels
substrate of OAT3 (OAT3): substrate

CC1(C)[C@@H](OS(=O)(=O)O)CC[C@]2(C)[C@H]3C(=O)C=C4[C@@H]5C[C@@](C)(C(=O)O)C[C@H](O)[C@]5(C)CC[C@@]4(C)[C@]3(C)CC[C@@H]12 [compound 2, 22α-hydroxy-18β-glycyrrhetyl-3-O-sulfate]
uptake into cells expressing OAT1 compared with mock cells (OAT1 [2]): significantly higher
area of positive staining in dot-blot (anti-3MGA-mAb): 79 pixels

CC1(C)[C@@H](OS(=O)(=O)O)CC[C@]2(C)[C@H]3C(=O)C=C4[C@@H]5C[C@@](C)(C(=O)O)CC[C@]5(C)CC[C@@]4(C)[C@]3(C)CC[C@@H]12 [compound 3, 18β-glycyrrhetyl-3-O-sulfate]
uptake into cells expressing OAT1 compared with mock cells (OAT1 [2]): significantly higher
area of positive staining in dot-blot (anti-3MGA-mAb): 146 pixels
